From patent EP1582590A1, “Sequential intracellular screening method” (Aptanomics, priority 2004, dated 2005) come the findings set out here.

Where two headings read alike, the source gives them in different places.

Assay type in all cases: cell-based
In one experiment the target is TGF-β-R/FKBP12 (Rattus norvegicus, UniProt Q62658). Put plainly: luminescent yeast two-hybrid assay, inhibition of protein interaction by small molecules (luc reporter). As for the experimental part: They were grown from frozen transformants.
TGF-β-R/FKBP12, sequence (Q62658 whole entry): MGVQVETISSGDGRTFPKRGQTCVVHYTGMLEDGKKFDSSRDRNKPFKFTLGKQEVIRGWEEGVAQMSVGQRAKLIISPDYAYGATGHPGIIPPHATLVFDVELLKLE
TGF-β-R/FKBP12, sequence (P80204 146-501 partner): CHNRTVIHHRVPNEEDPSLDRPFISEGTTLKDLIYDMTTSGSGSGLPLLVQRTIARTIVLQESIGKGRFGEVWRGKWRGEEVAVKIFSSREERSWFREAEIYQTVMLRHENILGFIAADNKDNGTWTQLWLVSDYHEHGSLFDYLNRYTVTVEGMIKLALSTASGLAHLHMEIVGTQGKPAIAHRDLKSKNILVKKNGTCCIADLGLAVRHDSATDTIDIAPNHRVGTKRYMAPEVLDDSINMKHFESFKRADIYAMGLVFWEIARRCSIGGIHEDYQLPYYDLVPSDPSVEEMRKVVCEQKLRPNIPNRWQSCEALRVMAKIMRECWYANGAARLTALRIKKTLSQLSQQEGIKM
(§1) 20µl of yeast cultures were delivered into 96 well half area white plates (Coming-Costar, ref. 3693). When applicable, 2µl of either DMSO 10% or 10µM of small molecules were added. 2µl of Galactose 20% were added to the wells to induce the expression of the preys. When two different yeast cultures were mixed in a single well, 10µl of each culture were used, to reach a total of 20µl. Plates were incubated at room temperature and left non-agitated for various times. To reveal the activity of both luciferases, a Dual-Glo™ luciferase assay system was used (Promega, ref. E2920) according to the instructions of the manufacturer. Briefly, to lyse the yeast and reveal the activity of firefly luciferase, 25µl of reagent was added and the plates were incubated for another 40 to 60min at room temperature, without agitation, before being read in a luminometer. To reveal the activity of Renilla luciferase, 25µl of "stop&glo reagent" were added to the wells and the plates were incubated for another 60min at room temperature, without agitation, before a second reading. Luminescence was measured by a Trilux (Perkin Elmer) setting the integration at 1sec/well. Values are given in LCPS (1LCPS = 100 counts per sec).

Experiment [1] deals with T1, interaction between Trα and NCoR (Homo sapiens, UniProt P10827).
T1 construct: expressed in transfected cells; host or cells: Saccharomyces cerevisiae TB50 (WT and ERG6-deleted)
T1 sequence (P10827 1-410 isoform P10827-2): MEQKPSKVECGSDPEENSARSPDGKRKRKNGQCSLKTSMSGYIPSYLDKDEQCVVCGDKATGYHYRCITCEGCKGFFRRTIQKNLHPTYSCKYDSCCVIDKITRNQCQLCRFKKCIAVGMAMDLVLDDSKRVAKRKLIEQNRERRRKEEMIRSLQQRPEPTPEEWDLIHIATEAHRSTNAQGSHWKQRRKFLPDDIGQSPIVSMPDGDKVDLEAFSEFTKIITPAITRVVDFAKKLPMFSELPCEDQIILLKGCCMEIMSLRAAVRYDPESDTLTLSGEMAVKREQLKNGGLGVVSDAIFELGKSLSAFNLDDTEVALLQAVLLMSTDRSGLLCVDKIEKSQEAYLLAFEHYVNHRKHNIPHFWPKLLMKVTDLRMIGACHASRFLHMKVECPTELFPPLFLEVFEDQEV
The experiment in a line: dual (duplex) two-hybrid assay, two yeast populations mixed in one well, ruc signal. As to the method: (§2) Yeast strains TB50 WT and TB50 ERG6 were transformed as described in Figure 1. They were grown from frozen transformants. For each strain, the two yeast cultures containing the two protein interactions were mixed together and delivered into a microwell plate. […] Experiments were performed in duplicates. The values are normalized with the signals obtained in presence of DMSO.
as §1, with “To reveal the activity of both luciferases, a Dual-Glo™ luciferase assay system was used (Promega, ref. E2920) according to the instructions of the manufacturer.” left out, “Values are given in LCPS (1LCPS = 100 counts per sec).” left out

The test system of experiment [2] is lexA-TGFβ-R and B42-FKBP12. The experiment in a line: dual (duplex) two-hybrid assay, two yeast populations mixed in one well, luc signal. As to the method:
as §2
as §1, with “To reveal the activity of both luciferases, a Dual-Glo™ luciferase assay system was used (Promega, ref. E2920) according to the instructions of the manufacturer.” left out, “Values are given in LCPS (1LCPS = 100 counts per sec).” left out

One may read the inhibition as how much of the control response was suppressed. On to `C=CC[C@@H]1/C=C(\C)C[C@H](C)C[C@H](OC)[C@H]2O[C@@](O)(C(=O)C(=O)N3CCCC[C@H]3C(=O)O[C@H](/C(C)=C/[C@@H]3CC[C@@H](O)[C@H](OC)C3)[C@H](C)[C@@H](O)CC1=O)[C@H](C)C[C@@H]2OC` [FK506], for which the inhibition at 10 µM on TGF-β-R/FKBP12 (read-out: % Inhibition 10µM, Addition of compound C 23h after induction of prey (partner B), plates read 5h later, TB50 WT) was 46%; at TGF-β-R/FKBP12 (read-out: % Inhibition 10µM, Addition of compound C before induction of prey (partner B), 5h induction time, TB50 WT), 80%; on TGF-β-R/FKBP12 (read-out: inhibition of two-hybrid signals, 10µM FK506, maximum inhibition after 4h of induction time), > 90%. Besides, the “inhibition of the ruc two-hybrid signal” value in experiment [1] (ERG6 deleted strain, high concentration of FK506, non-cognate interaction, duplex, induction time 5h) was 40%.
In the case of `C[C@@H]1C[C@@H]([C@H](O)CC2CC(=O)NC(=O)C2)C(=O)[C@@H](C)C1` [cycloheximide], the “effect on ruc two-hybrid signal” value in experiment [1] was “strongly inhibited both two-hybrid signals”. The “effect on luc two-hybrid signal” value in experiment [2] was “strongly inhibited both two-hybrid signals”.
